What was measured:
Assay type in all cases: in vivo
Spodoptera littoralis = Spodoptera littoralis (Egyptian cotton leafworm) leaf disc test; conditions: foliar, 72 h, application rate 200 ppm, cotton leaf discs, L1 larvae, mortality, feeding behavior, growth regulation 3 DAT
Source text: Spodoptera littoralis (Egyptian Cotton Leafworm): Cotton leaf discs were placed on agar in a 24-well microtiter plate and sprayed with test solutions at an application rate of 200 ppm. After drying, the leaf discs were infested with 5 L1 larvae. The samples were checked for mortality, feeding behavior, and growth regulation 3 days after treatment (DAT).

Heliothis virescens = Heliothis virescens (tobacco budworm) egg/larval test on artificial diet; conditions: 96 h, application rate 200 ppm (concentration in well 18 ppm), eggs on artificial diet, 4 days
Experimental: Eggs (0-24 h old) were placed in 24-well microtiter plate on artificial diet and treated with test solutions at an application rate of 200 ppm (concentration in well 18 ppm) by pipetting. After an incubation period of 4 days, samples were checked for egg mortality, larval mortality, and growth regulation.

Plutella xylostella = Plutella xylostella (diamond back moth) larval test on artificial diet; conditions: 144 h, application rate 200 ppm (concentration in well 18 ppm), L2 larvae on artificial diet, 6 days
Experimental: (§1) 24-well microtiter plate (MTP) with artificial diet was treated with test solutions at an application rate of 200 ppm (concentration in well 18 ppm) by pipetting. After drying, the MTP's were infested with L2 larvae (7-12 per well). After an incubation period of 6 days, samples were checked for larval mortality and growth regulation.

Diabrotica balteata = Diabrotica balteata (corn root worm) larval test on artificial diet; conditions: 120 h, application rate 200 ppm (concentration in well 18 ppm), L2 larvae on artificial diet, 5 days
Experimental: as §1, with “Diabrotica balteata (Corn Root Worm): A 24-well” for “24-well”, “(6-10” for “(7-12”, “5” for “6”

Myzus persicae = Myzus persicae (green peach aphid), systemic test; conditions: 144 h, application rate 12.5 ppm, roots of pea seedlings in test solution, 6 days
Source text: Myzus persicae (Green peach aphid), systemic test: Roots of pea seedlings, infested with an aphid population of mixed ages, are placed directly in the test solutions at an application rate of 12.5 ppm. 6 days after introduction, samples are checked for mortality and special effects on the plant. The following compounds gave at least 80% control of Myzus persicae: […]

Thrips tabaci = Thrips tabaci (onion thrips) leaf disc test; conditions: foliar, 168 h, application rate 200 ppm, sunflower leaf discs, 7 days
Experimental: Sunflower leaf discs were placed on agar in a 24-well microtiter plate and sprayed with test solutions at an application rate of 200 ppm. After drying, the leaf discs were infested with a thrips population of mixed ages. After an incubation period of 7 days, samples were checked for mortality.

Tetranychus urticae = Tetranychus urticae (two-spotted spider mite) leaf disc test; conditions: foliar, 192 h, application rate 200 ppm, bean leaf discs, 8 days
Source text: Bean leaf discs on agar in 24-well microtiter plates were sprayed with test solutions at an application rate of 200 ppm. After drying, the leaf discs are infested with mite populations of mixed ages. 8 days later, discs are checked for egg mortality, larval mortality, and adult mortality.

Cc1cc(C2=NOC(c3cc(Cl)cc(Cl)c3)(C(F)(F)F)C2)ncc1SCC(=O)NC1CC1 (centres unmarked) [Compound F2, N-cyclopropyl-2-[[6-[5-(3,5-dichlorophenyl)-5-(trifluoromethyl)-4H-isoxazol-3-yl]-4-methyl-3-pyridyl]sulfanyl]acetamide]
≥ 80%: pest or weed control at 200 ppm (Spodoptera littoralis) | pest or weed control at 200 ppm (Heliothis virescens) | pest or weed control at 200 ppm (Plutella xylostella) | pest or weed control at 200 ppm (Diabrotica balteata) | pest or weed control at 12.5 ppm (Myzus persicae)

O=C(C[S+]([O-])c1ccc(C2=NO[C@@](c3cc(Cl)cc(Cl)c3)(C(F)(F)F)C2)cc1F)NCC(F)(F)F (stereo partly drawn) [Compound C64, 2-[4-[(5S)-5-(3,5-dichlorophenyl)-5-(trifluoromethyl)-4H-isoxazol-3-yl]-2-fluoro-phenyl]sulfinyl-N-(2,2,2-trifluoroethyl)acetamide]
≥ 80%: pest or weed control at 200 ppm (Spodoptera littoralis) | pest or weed control at 200 ppm (Heliothis virescens) | pest or weed control at 200 ppm (Plutella xylostella) | pest or weed control at 200 ppm (Diabrotica balteata) | pest or weed control at 12.5 ppm (Myzus persicae) | pest or weed control at 200 ppm (Thrips tabaci) | pest or weed control at 200 ppm (Tetranychus urticae)

O=C(CSc1ccc(C2=NO[C@@](c3cc(Cl)c(Cl)c(Cl)c3)(C(F)(F)F)C2)cc1Cl)NCC(F)(F)F [Compound D1, 2-[2-chloro-4-[(5S)-5-(3,4,5-trichlorophenyl)-5-(trifluoromethyl)-4H-isoxazol-3-yl]phenyl]sulfanyl-N-(2,2,2-trifluoroethyl)acetamide]
≥ 80%: pest or weed control at 200 ppm (Spodoptera littoralis) | pest or weed control at 200 ppm (Heliothis virescens) | pest or weed control at 200 ppm (Plutella xylostella) | pest or weed control at 200 ppm (Diabrotica balteata) | pest or weed control at 12.5 ppm (Myzus persicae) | pest or weed control at 200 ppm (Thrips tabaci) | pest or weed control at 200 ppm (Tetranychus urticae)

O=C(CS(=O)(=O)c1ccc(C2=NO[C@@](c3cc(Cl)c(Cl)c(Cl)c3)(C(F)(F)F)C2)cc1Cl)NCC(F)(F)F [Compound D3, 2-[2-chloro-4-[(5S)-5-(3,4,5-trichlorophenyl)-5-(trifluoromethyl)-4H-isoxazol-3-yl]phenyl]sulfonyl-N-(2,2,2-trifluoroethyl)acetamide]
≥ 80%: pest or weed control at 200 ppm (Spodoptera littoralis) | pest or weed control at 200 ppm (Heliothis virescens) | pest or weed control at 200 ppm (Plutella xylostella) | pest or weed control at 200 ppm (Diabrotica balteata) | pest or weed control at 12.5 ppm (Myzus persicae) | pest or weed control at 200 ppm (Thrips tabaci) | pest or weed control at 200 ppm (Tetranychus urticae)

Cc1cc(C2=NO[C@@](c3cc(Cl)cc(Cl)c3)(C(F)(F)F)C2)ccc1SCC(=O)NCC(F)(F)F [Compound C4, 2-{4-[(S)-5-(3,5-Dichloro-phenyl)-5-trifluoromethyl-4,5-dihydro-isoxazol-3-yl]-2-methyl-phenylsulfanyl}-N-(2,2,2-trifluoro-ethyl)-acetamide]
≥ 80%: pest or weed control at 200 ppm (Spodoptera littoralis) | pest or weed control at 200 ppm (Diabrotica balteata)

O=C(CSc1ccc(C2=NOC(c3cc(Cl)cc(Cl)c3)(C(F)(F)F)C2)c2ccccc12)NCC(F)(F)F (centres unmarked) [Compound G1, 2-[[4-[5-(3,5-dichlorophenyl)-5-(trifluoromethyl)-4H-isoxazol-3-yl]-1-naphthyl]sulfanyl]-N-(2,2,2-trifluoroethyl)acetamide]
≥ 80%: pest or weed control at 200 ppm (Spodoptera littoralis) | pest or weed control at 200 ppm (Heliothis virescens) | pest or weed control at 200 ppm (Plutella xylostella) | pest or weed control at 200 ppm (Diabrotica balteata) | pest or weed control at 12.5 ppm (Myzus persicae) | pest or weed control at 200 ppm (Thrips tabaci) | pest or weed control at 200 ppm (Tetranychus urticae)

O=C(CS(=O)(=O)c1ccc(C2=NO[C@@](c3cc(Cl)c(Cl)c(Cl)c3)(C(F)(F)F)C2)cc1Cl)NC1CC1 [Compound D6, 2-[2-chloro-4-[(5S)-5-(3,4,5-trichlorophenyl)-5-(trifluoromethyl)-4H-isoxazol-3-yl]phenyl]sulfonyl-N-cyclopropyl-acetamide]
≥ 80%: pest or weed control at 12.5 ppm (Myzus persicae)

O=C(C[S+]([O-])c1ccc(C2=NO[C@@](c3cc(Cl)c(Cl)c(Cl)c3)(C(F)(F)F)C2)cc1Cl)NCC(F)(F)F (stereo partly drawn) [Compound D2, 2-[2-chloro-4-[(5S)-5-(3,4,5-trichlorophenyl)-5-(trifluoromethyl)-4H-isoxazol-3-yl]phenyl]sulfinyl-N-(2,2,2-trifluoroethyl)acetamide]
≥ 80%: pest or weed control at 200 ppm (Spodoptera littoralis) | pest or weed control at 200 ppm (Heliothis virescens) | pest or weed control at 200 ppm (Plutella xylostella) | pest or weed control at 200 ppm (Diabrotica balteata) | pest or weed control at 12.5 ppm (Myzus persicae) | pest or weed control at 200 ppm (Thrips tabaci) | pest or weed control at 200 ppm (Tetranychus urticae)

O=C(C[S+]([O-])c1ccc(C2=NO[C@@](c3cc(Cl)c(Cl)c(Cl)c3)(C(F)(F)F)C2)cc1Cl)NC1CC1 (stereo partly drawn) [Compound D5, 2-[2-chloro-4-[(5S)-5-(3,4,5-trichlorophenyl)-5-(trifluoromethyl)-4H-isoxazol-3-yl]phenyl]sulfinyl-N-cyclopropyl-acetamide]
≥ 80%: pest or weed control at 12.5 ppm (Myzus persicae)

O=C(CS(=O)(=O)c1ccc(C2=NOC(c3cc(Cl)cc(Cl)c3)(C(F)(F)F)C2)cc1Br)NCC(F)(F)F (centres unmarked) [Compound A53, 2-{2-Bromo-4-[5-(3,5-dichloro-phenyl)-5-trifluoromethyl-4,5-dihydro-isoxazol-3-yl]-benzenesulfonyl}-N-(2,2,2-trifluoro-ethyl)-acetamide]
≥ 80%: pest or weed control at 200 ppm (Spodoptera littoralis) | pest or weed control at 200 ppm (Heliothis virescens) | pest or weed control at 200 ppm (Plutella xylostella) | pest or weed control at 200 ppm (Diabrotica balteata) | pest or weed control at 12.5 ppm (Myzus persicae) | pest or weed control at 200 ppm (Thrips tabaci) | pest or weed control at 200 ppm (Tetranychus urticae)

O=C(CSc1ccc(C2=NCC(c3cc(Cl)cc(Cl)c3)(C(F)(F)F)C2)cc1Cl)NCC(F)(F)F (centres unmarked) [Compound B1, 2-{2-Chloro-4-[4-(3,5-dichloro-phenyl)-4-trifluoromethyl-4,5-dihydro-3H-pyrrol-2-yl]-phenylsulfanyl}-N-(2,2,2-trifluoro-ethyl)-acetamide]
≥ 80%: pest or weed control at 200 ppm (Spodoptera littoralis) | pest or weed control at 200 ppm (Heliothis virescens) | pest or weed control at 200 ppm (Plutella xylostella) | pest or weed control at 200 ppm (Diabrotica balteata) | pest or weed control at 12.5 ppm (Myzus persicae) | pest or weed control at 200 ppm (Thrips tabaci) | pest or weed control at 200 ppm (Tetranychus urticae)

O=C(CS(=O)(=O)c1ccc(C2=NCC(c3cc(Cl)cc(Cl)c3)(C(F)(F)F)C2)cc1Cl)NCC(F)(F)F (centres unmarked) [Compound B3, 2-{2-chloro-4-[4-(3,5-Dichloro-phenyl)-4-trifluoromethyl-4,5-dihydro-3H-pyrrol-2-yl]-benzenesulfonyl}-N-(2,2,2-trifluoro-ethyl)-acetamide]
≥ 80%: pest or weed control at 200 ppm (Spodoptera littoralis) | pest or weed control at 200 ppm (Heliothis virescens) | pest or weed control at 200 ppm (Plutella xylostella) | pest or weed control at 200 ppm (Diabrotica balteata) | pest or weed control at 12.5 ppm (Myzus persicae) | pest or weed control at 200 ppm (Thrips tabaci) | pest or weed control at 200 ppm (Tetranychus urticae)

O=C(C[S+]([O-])c1ccc(C2=NOC(c3cc(Cl)cc(Cl)c3)(C(F)(F)F)C2)cc1Br)NCC(F)(F)F (centres unmarked) [Compound A52, 2-{2-Bromo-4-[5-(3,5-dichloro-phenyl)-5-trifluoromethyl-4,5-dihydro-isoxazol-3-yl]-benzenesulfinyl}-N-(2,2,2-trifluoro-ethyl)-acetamide]
≥ 80%: pest or weed control at 200 ppm (Spodoptera littoralis) | pest or weed control at 200 ppm (Heliothis virescens) | pest or weed control at 200 ppm (Plutella xylostella) | pest or weed control at 200 ppm (Diabrotica balteata) | pest or weed control at 12.5 ppm (Myzus persicae) | pest or weed control at 200 ppm (Thrips tabaci) | pest or weed control at 200 ppm (Tetranychus urticae)

Cc1cc(C2=NOC(c3cc(Cl)cc(Cl)c3)(C(F)(F)F)C2)cnc1SCC(=O)NC1CC1 (centres unmarked) [Compound F1, N-cyclopropyl-2-[[5-[5-(3,5-dichlorophenyl)-5-(trifluoromethyl)-4H-isoxazol-3-yl]-3-methyl-2-pyridyl]sulfanyl]acetamide]
≥ 80%: pest or weed control at 200 ppm (Spodoptera littoralis) | pest or weed control at 200 ppm (Heliothis virescens) | pest or weed control at 200 ppm (Plutella xylostella) | pest or weed control at 200 ppm (Diabrotica balteata) | pest or weed control at 200 ppm (Tetranychus urticae)

N#CC1(NC(=O)CS(=O)(=O)c2ccc(C3=NOC(c4cc(Cl)cc(Cl)c4)(C(F)(F)F)C3)cc2Cl)CC1 (centres unmarked) [Compound A61, 2-[2-chloro-4-[5-(3,5-dichlorophenyl)-5-(trifluoromethyl)-4H-isoxazol-3-yl]phenyl]sulfonyl-N-(1-cyanocyclopropyl)acetamide]
≥ 80%: pest or weed control at 200 ppm (Spodoptera littoralis) | pest or weed control at 200 ppm (Heliothis virescens) | pest or weed control at 200 ppm (Plutella xylostella) | pest or weed control at 200 ppm (Diabrotica balteata) | pest or weed control at 200 ppm (Thrips tabaci) | pest or weed control at 200 ppm (Tetranychus urticae)

Reference: patent publication US8895587B2, “Insecticidal compounds based on arylthioacetamide derivatives” (Syngenta Participations AG, priority 2011, dated 2014)
